The values below come from patent US20230407304A1, “USE OF MICRORNA INHIBITION TO PREVENT AND TREAT OSTEOARTHRITIS AND OTHER INFLAMMATORY DISEASES” (VIRGINIA COMMONWEALTH UNIVERSITY, priority 2020, published 2023).

In assay [1] the test system is bilateral ACLT model of OA in Sprague Dawley rats. Put plainly: Severe model of OA: bilateral ACLT, weekly intra-articular 24R,25 injections. It is filed as in vivo, rat. The note with it: 10 weeks. On the procedure:
The second study created a more severe model of OA by performing bilateral ACLTs, using the experimental design shown in FIG. 2B. Treatment groups had n=8 plus 1 extra animal in case of morbidity or mortality. Nine animals were sedated using 2-4% isoflurane anesthesia in 400 mL/min O2 to effect. Bilateral anterior cruciate ligament transections were performed by medially translocating the patellar tendon in order to visualize and transect the ACL. Left legs received vehicle injections and right legs received 24R,25 injections once weekly using the same injection regimen outlined for the previous study. Animals were killed 70 days post-ACLT, and serum and hind-limbs were collected.
24R,25(OH)2D3 was obtained from Enzo Life Sciences (Plymouth Meeting, PA) and dissolved in ethanol at a stock concentration of 10^−4 M in accordance with a previously established protocol (see Boyan et al. PLoS One. 2016; 11(8):e0161782). 40 μL of stock 24R,25 was dissolved in 10 mL sterile 1×PBS to create a final treatment concentration of 4×10^−7 M 24R,25. All animals received injections of 25 μL of 4×10^−7 M 24R,25 in right legs or vehicle (40 μL ethanol dissolved in sterile 1×PBS to a final concentration of 0.4%) in left legs once a week for 70 days based on a previously established protocol (see Boyan et al., supra).
Samples were decalcified for 7 days using Decal™ (StatLab Medical Products, Mckinney, TX), rinsed in running DI water for 15 mins, dehydrated in a series of 70-100% ethanol and xylene washes, and embedded with Richard-Allan Scientific Histoplast Paraffin (VWR, Radnor, PA). 5 μm sections were cut every 100-200 μm throughout the joint using a manual microtome (Shandon Finesse 325, Thermo Scientific) and stained using hematoxylin and eosin (H&E), toluidine blue, or Masson's trichrome. Samples were imaged using Zen 2012 Blue Edition software with an AxioCam MRc5 camera and Axio Observer Z.1 microscope (Carl Zeiss Microscopy, Oberkochen, Germany).
The articular cartilage area, fibrotic area, and percent healthy subchondral bone were measured using Zen 2012 Blue Edition software. For the unilateral ACLT study: the articular cartilage area was measured on 2-3 slides per sample and the average area for each sample was reported for medial tibias. […] For the bilateral ACLT study, articular cartilage area, fibrotic area, and the percent healthy subchondral bone were measured on one slide per sample for medial femurs. The subchondral bone plate was measured and subdivided into healthy regions (normal cartilage above) and unhealthy regions (subchondral bone remodeling and osteophyte formation, cartilage erosion/delamination). The percent healthy subchondral bone was reported as healthy subchondral bone divided by total subchondral bone*100.
Two blinded reviewers scored histological samples and assigned a grade (0-6.5) to assess OA depth progression into the cartilage and a stage (0-4) to assess the horizontal extent of cartilage involvement along the articulating surface according to the OARSI scoring system guidelines (see Pritzker et al. Osteoarthritis Cartilage. 2006 January; 14(1):13-29). The grade and stage were multiplied together to obtain the OARSI score. The higher the score, the more severe OA present, with a max possible score of 26. […]
Data are represented as mean±standard error. […] Blood serum of day 0 vs day 70 was analyzed used a two-tailed paired t-test using an alpha=0.05. […]

Assay [2] has as its system unilateral ACLT model of OA. To be noted: four weeks following ACLT surgery, previous work (Boyan et al.); cited from earlier work.
The subject of assay [3] is unilateral ACLT model of OA in Sprague Dawley rats. Briefly: Mild model of OA: unilateral ACLT, weekly intra-articular 24R,25 injections. In kind it is in vivo, rat. On the procedure:
A total of 54 skeletally mature male Sprague-Dawley rats (Envigo, Indianapolis, IN), 9-10 weeks of age, weighing 250-300 g at the study onset, were used for these experiments. All animal procedures were performed according to the National Research Council's Guide for the Care and Use of Laboratory Animals guidelines and approved by Virginia Commonwealth University's Institutional Animal Care and Use Committee. All rats were given ad libitum access to standard pellet and water. Based on a previous study (Scott, supra) using a 30% effect size, 20% variance, and a power of 80%, a two-tail analysis indicated an n=8 per group was necessary to yield statistical significance.
The unilateral ACLT study initially included 45 rats. Each treatment group had n=8 plus 1 extra animal in case of morbidity or mortality. Three rats died resulting in a total of 42 rats in the study. Rats were sedated with 2-4% isoflurane anesthesia in 400 mL/min 02 to effect. Unilateral anterior cruciate ligament transections (ACLT, animals=45) were performed by medially translocating the patellar tendon in order to visualize and transect the ACL to create a […] model of OA. Left legs served at contralateral controls (c-control) while right legs received either […] of vehicle injections or 4×10^−7 M 24R,25(OH)2D3 (24R,2S) injections once a week. Eighteen rats were used to examine a 5-week prophylactic treatment duration while another eighteen rats were used to examine a 10-week prophylactic treatment duration. […] However, 3 animals died in this study resulting in an n=8 for the ACLT rats, for the 5-week vehicle (5W-Veh) treated rats, and the 10-week 24R,25 (10W-24R,25) treated rats. Animals were killed after 70 days. Hind-limbs were collected and micro-CT and histological analyses were performed. […]
The articular cartilage area, fibrotic area, and percent healthy subchondral bone were measured using Zen 2012 Blue Edition software. For the unilateral ACLT study: the articular cartilage area was measured on 2-3 slides per sample and the average area for each sample was reported for medial tibias. […]

In assay [4] the test system is IL-1β stimulated increases in MMP-13, PGE2, and NO. To be noted: cited from earlier work.
Assay [5] concerns destabilization of the medial meniscus model of OA. The note with it: destabilization of the medial meniscus model of OA in mice; literature; cited from earlier work.
Assay [6] deals with rat articular chondrocytes (rArCs). Briefly: WNT/β-catenin agonist or antagonist treatment of rArCs with or without IL-1β. In kind it is cell-based. To be noted: compound alone (LiCl 5 mM and 10 mM; XAV 0.5, 1 μM).
For assay [7] the test system is unchanged. Put plainly: WNT/β-catenin agonist or antagonist treatment of rArCs with or without TNF-α. In kind it is cell-based. The note with it: compound plus 10 ng/mL TNF-α.
Where [8] appears, read: bilateral ACLT, 24R,25 vs vehicle limbs.
[9] abbreviates: 10W 24R,25 vs 10W-Veh vs ACLT alone.

“And” between values parts separate entries of the source, which are not always exact repeats. Identical values can stand only once.

Regarding `C=C1CC[C@H](O)C/C1=C/C=C1\CCC[C@]2(C)[C@@H]([C@H](C)CC[C@@H](O)C(C)(C)O)CC[C@@H]12` [24R,25, 24R,25-Dihydroxyvitamin D3], in assay [1] (bilateral ACLT, 24R,25 once weekly, day 70), the “OARSI score (average)” value is 16.61 and 15. For the same compound, in assay [1] (bilateral ACLT, 24R,25 right legs vs vehicle left legs, once weekly), the “articular cartilage area, medial femurs (histomorphometric analysis)” value is on record as “significantly less articular cartilage area compared to vehicle limbs”. Moreover, in assay [1] (setting [8]), the “fibrotic area, medial femurs” value was “equivalent amount” and the “percent healthy subchondral bone, medial femurs” value was “equivalent amount”. In addition, in assay [1] (severe (bilateral ACLT) model), the “mitigation of OA progression / OA severity” value was “did not provide evidence of mitigation of OA progression”. For the same compound, the OA progression entry in assay [2] is reported as “mitigated OA progression”. Besides, in assay [3] (setting [9]), the “cartilage area by histomorphometric analysis, medial tibias” value is recorded as “no difference in cartilage area”; the “micro-CT cartilage volume, medial and lateral tibia” value is listed as “no difference in cartilage volume between groups”. In addition, the “mean OARSI score, medial tibias” value in assay [3] (unilateral ACLT, 4×10^−7 M 24R,25 once a week for 10 weeks, day 70, max possible score 26) was determined as 5.11. Further, the “IL-1β stimulated increases in MMP-13, PGE2, and NO” value in assay [4] was “able to prevent”.

Take `Oc1nc(-c2ccc(C(F)(F)F)cc2)nc2c1CSCC2` [XAV, XAV-939]: the cartilage degradation result in assay [5] was “reduced cartilage degradation”. The “total DNA” value is on record as “this was not seen” in assay [6] and “decrease in total DNA” in assay [7].
